According to PubChem BioAssay (NCI):
Several values for one entry are separate records, joined by “and”; a condition that tells them apart may be missing. Equal values may be shown once.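 Growth conditions: 96-well plates. Treatment: test compound, 48 hours, 5 concentrations. Analysis: linear interpolation between bracketing concentrations; unreached endpoints set to highest concentration. GI50: concentration for 50% inhibition of growth. The concentration for full growth arrest is given as TGI.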

Assays:
Assay in all cases: growth of human tumour cells (NCI), 48 h
[1] = tested on: RXF 393 renal
[2] = tested on: COLO 205 colon
[3] = tested on: M19-MEL melanoma
[4] = tested on: OVCAR-4 ovarian
[5] = tested on: DLD-1 colon
[6] = tested on: EKVX NSCLC
[7] = tested on: NCI-H460 lung
[8] = tested on: SR leukemia
[9] = tested on: SK-MEL-28 melanoma
[10] = tested on: LOX IMVI melanoma
[11] = tested on: HCT-116 colon
[12] = tested on: CAKI-1 renal
[13] = tested on: HL-60(TB) leukemia
[14] = tested on: OVCAR-8 ovarian
[15] = tested on: 786-0 renal
[16] = tested on: IGROV1 ovarian
[17] = tested on: CCRF-CEM leukemia
[18] = tested on: NCI-H522 lung
[19] = tested on: SK-MEL-2 melanoma
[20] = tested on: M14 melanoma
[21] = tested on: KM20L2 colon
[22] = tested on: DMS 114 small cell lung
[23] = tested on: ACHN renal
[24] = tested on: OVCAR-5 ovarian
[25] = tested on: SN12C renal
[26] = tested on: OVCAR-3 ovarian
[27] = tested on: SNB-75 CNS
[28] = tested on: U251 CNS
[29] = tested on: SF-268 CNS
[30] = tested on: UACC-257 melanoma
[31] = tested on: A498 renal
[32] = tested on: LXFL 529 NSCLC
[33] = tested on: SK-OV-3 ovarian
[34] = tested on: MOLT-4 leukemia
[35] = tested on: HOP-62 NSCLC
[36] = tested on: HCT-15 colon
[37] = tested on: KM12 colon
[38] = tested on: DMS 273 small cell lung
[39] = tested on: SNB-19 CNS
[40] = tested on: RPMI-8226 leukemia
[41] = tested on: SF-295 CNS
[42] = tested on: UACC-62 melanoma
[43] = tested on: HCC-2998 colon
[44] = tested on: A549 NSCLC
[45] = tested on: HOP-18 NSCLC
[46] = tested on: K-562 leukemia
[47] = tested on: NCI-H226 lung
[48] = tested on: TK-10 renal
[49] = tested on: UO-31 renal
[50] = tested on: NCI-H23 lung
[51] = tested on: SK-MEL-5 melanoma
[52] = tested on: HT29 colon
[53] = tested on: SW-620 colon
[54] = tested on: MALME-3M melanoma
[55] = tested on: HS 578T breast
[56] = tested on: BT-549 breast
[57] = tested on: T-47D breast
[58] = tested on: DU-145 prostate
[59] = tested on: MCF7 breast
[60] = tested on: PC-3 prostate
[61] = tested on: MDA-MB-435
[62] = tested on: MDA-MB-231 breast
[63] = tested on: HOP-92 NSCLC
[64] = tested on: NCI/ADR-RES ovarian
[65] = tested on: MDA-N
[66] = tested on: SF-539 CNS

## COC(=O)C(=O)C1(CCC(C)=O)c2ccccc2-c2ccccc21
[1]
  TGI: > 100 µM
[2]
  TGI: > 100 µM
[3]
  TGI: > 100 µM
[4]
  TGI: > 100 µM
[5]
  TGI: > 100 µM
[6]
  TGI: > 100 µM
[7]
  TGI: > 100 µM
[8]
  TGI: > 100 µM
[9]
  TGI: > 100 µM
[10]
  TGI: > 100 µM
[11]
  TGI: > 100 µM
[12]
  TGI: > 100 µM
[13]
  TGI: > 100 µM
[14]
  TGI: > 100000 nM
[15]
  TGI: > 100 µM
[16]
  TGI: > 100 µM
[17]
  TGI: > 100000 nM
[18]
  TGI: > 100000 nM
[19]
  TGI: > 100 µM
[20]
  TGI: > 100 µM
[21]
  TGI: > 100 µM
[22]
  TGI: > 100000 nM
[23]
  TGI: > 100 µM
[24]
  TGI: > 100 µM
[25]
  TGI: > 100 µM
[26]
  TGI: > 100 µM
[27]
  TGI: > 100 µM
[28]
  TGI: > 100 µM
[29]
  TGI: > 100 µM
[30]
  TGI: > 100 µM
[31]
  TGI: > 100 µM
[32]
  TGI: > 100 µM
[33]
  TGI: > 100 µM
[34]
  TGI: > 100 µM
[35]
  TGI: > 100 µM
[36]
  TGI: > 100 µM
[37]
  TGI: > 100 µM
[38]
  TGI: > 100 µM
[39]
  TGI: > 100 µM
[40]
  TGI: > 100 µM
[41]
  TGI: > 100 µM
[42]
  TGI: > 100 µM
[43]
  TGI: > 100 µM
[44]
  TGI: > 100 µM
[45]
  TGI: > 100 µM
[46]
  TGI: > 100 µM
[47]
  TGI: > 100 µM
[48]
  TGI: > 100 µM
[49]
  TGI: > 100 µM
[50]
  TGI: > 100 µM
[51]
  TGI: > 100 µM
[52]
  TGI: > 100 µM
[53]
  TGI: > 100 µM
[54]
  TGI: > 100 µM

## NC(=O)c1cn(C2OC(CO)C(O)C2O)c2ncnc(N)c12 (stereo not given)
[55]
  TGI: 75.8 nM
[56]
  TGI: 38.9 nM
[8]
  GI50: 12.8 nM
  TGI: 0.0946 µM
[57]
  TGI: 52.3 nM
[14]
  TGI: 383 nM and 904 nM and 92.1 nM
[15]
  TGI: 0.0684 µM
[17]
  GI50: 5.59 nM and 24.6 nM and 6.27 nM
  TGI: 148 nM and 75.9 nM
[18]
  GI50: 48.2 nM and 21 nM
  TGI: 206 nM and 70.1 nM
[22]
  TGI: 205 nM and 326 nM
[23]
  TGI: 0.103 µM
[58]
  TGI: 48.7 nM
[38]
  GI50: 87.5 nM and 70 nM
  TGI: 118 nM [middle of 4 runs]
[43]
  TGI: 216 nM [middle of 4 runs]
[48]
  TGI: 0.0707 µM
[59]
  GI50: 20.7 nM
[60]
  TGI: 5.74 nM
[61]
  TGI: 36 nM
[62]
  TGI: 102 nM

## CC(=O)N(CN1C(=O)CCC1C(=O)O)c1ccccc1 (stereo not given)
[1]
  TGI: > 100 µM
[2]
  TGI: > 100 µM
[4]
  TGI: > 100 µM
[55]
  TGI: > 100000 nM
[56]
  TGI: > 100000 nM
[6]
  TGI: > 100 µM
[7]
  TGI: > 100 µM
[8]
  TGI: > 100 µM
[9]
  TGI: > 100 µM
[63]
  TGI: > 100 µM
[10]
  TGI: > 100 µM
[11]
  TGI: > 100 µM
[57]
  TGI: > 100000 nM
[12]
  TGI: > 100 µM
[13]
  TGI: > 100 µM
[14]
  TGI: > 100000 nM
[15]
  TGI: > 100 µM
[16]
  TGI: > 100 µM
[17]
  TGI: > 100000 nM
[18]
  TGI: > 100000 nM
[19]
  TGI: > 100 µM
[20]
  TGI: > 100 µM
[23]
  TGI: > 100 µM
[24]
  TGI: > 100 µM
[25]
  TGI: > 100 µM
[26]
  TGI: > 100 µM
[27]
  TGI: > 100 µM
[28]
  TGI: > 100 µM
[29]
  TGI: > 100 µM
[30]
  TGI: > 100 µM
[58]
  TGI: > 100000 nM
[31]
  TGI: > 100 µM
[33]
  TGI: > 100 µM
[34]
  TGI: > 100 µM
[35]
  TGI: > 100 µM
[36]
  TGI: > 100 µM
[37]
  TGI: > 100 µM
[39]
  TGI: > 100 µM
[40]
  TGI: > 100 µM
[41]
  TGI: > 100 µM
[42]
  TGI: > 100 µM
[64]
  TGI: > 100 µM
[43]
  TGI: > 100 µM
[44]
  TGI: > 100 µM
[46]
  TGI: > 100 µM
[47]
  TGI: > 100 µM
[65]
  TGI: > 100 µM
[48]
  TGI: > 100 µM
[49]
  TGI: > 100 µM
[50]
  TGI: > 100 µM
[59]
  TGI: > 100 µM
[51]
  TGI: > 100 µM
[52]
  TGI: > 100 µM
[66]
  TGI: > 100 µM
[53]
  TGI: > 100 µM
[60]
  TGI: > 100000 nM
[54]
  TGI: > 100 µM
[61]
  TGI: > 100000 nM
[62]
  TGI: > 100000 nM
